Data published in patent US20090069740A1, “PROTECTED DONOR ELECTRODES FOR ELECTRO-TRANSPORT DRUG DELIVERY” (POLYPLUS BATTERY COMPANY, priority 2007, published 2009).

Experiment: In vitro Li delivery through pig skin in a flow-through Li-AgCl cell (protected Li metal foil donor electrode)
Assay type: in vitro ADME
Details: ICP-MS
Experimental: The glass receptor compartment was similar to one described by Phipps et al. (1988) Solid-state Ionics 28-30: 1778-1783, for ionophoretic drug delivery experiments. The receptor compartment was filled with RPMI-1640 Medium (Sigma Aldrich). The antibiotic gentamicin sulphate was added to the receptor compartment fluid to inhibit bacterial growth.
The prepared skin was stored in RPMI-1640 medium overnight before the start of the experiment. The skin was placed on the receptor chamber and kept in place and stretched out with an O-ring around the neck of the chamber. The visceral surface of the skin was in contact with the receptor fluid.
A square 1 cm×1 cm silver chloride cathode with a capacity of approximately 40 mAh was introduced into the receptor chamber through a port. A multi-channel peristaltic pump was used to create a flow of the RPMI-1640 medium through receptor compartments of several cells. […]
The donor-acceptor chamber assembly was kept in place using a clamp. […] Li content in the fluid samples taken from receptor compartment was analyzed by ICP-MS.
Over the duration of the experiment (27 hrs at a current density of 0.1 mA/cm^2 and 24 hrs at a current density of 0.2 mA/cm^2), receptor fluid samples were taken and analyzed.
The rate of Li delivery into the receptor compartment was calculated as a product of Li concentration and the flow rate of the receptor fluid.

[Li+] [Li, lithium]
initial Li content of receptor solution (before current passing): ≤ 6 µg/L
Li content in receptor fluid samples (constant current 0.1 mA/cm^2 (27 hrs) and 0.2 mA/cm^2 (24 hrs), 37° C, RPMI-1640 receptor fluid, flow rate 2.1 mL/hr, FIG. 9): gradually increased over time and was significantly larger for the rate of 0.2 mA/cm^2 than for 0.1 mA/cm^2
